Species: Rattus norvegicus
Assay: Open TG-GATES - Regimen: Daily Repeat
Assay type: toxicity, organism-based, Sprague-Dawley
Design: regimen Daily Repeat, gender Male, age 6 weeks
Conditions: in vivo, po, 0 mg/kg, route gavage, dose level Control; for APTT / Bas / Eos / Fbg / Hb / Ht / Lym / MCH / MCHC / MCV / Mono / Neu / PT / Plat / RBC / Ret / WBC: tissue Blood; for KIDNEY_L / KIDNEY_R / KIDNEY_TOTAL: tissue Kidney; for LIVER: tissue Liver; for A/G / ALP / ALT / AST / BUN / CRE / Ca / Cl / DBIL / GLC / IP / K / LDH / Na / PL / RALB / TBIL / TC / TG / TP / gamma-GTP: tissue Plasma

`CCOC(=O)CCC(=O)O[C@H]1[C@H](O[C@@H]2[C@@H](C)[C@H](O[C@H]3C[C@@](C)(OC)[C@@H](O)[C@H](C)O3)[C@@H](C)C(=O)O[C@H](CC)[C@@](C)(O)[C@H](O)[C@@H](C)C(=O)[C@H](C)C[C@@]2(C)O)O[C@H](C)C[C@@H]1N(C)C` [ERYTHROMYCIN ETHYLSUCCINATE] showed a TERMINAL_BW (72 h, time 3 day) of 237.5 g, an APTT (72 h, time 3 day) of 21.3 s and a Bas (72 h, time 3 day) of 0%. It also gave an Eos (72 h, time 3 day) of 1%, a Fbg (72 h, time 3 day) of 295.4 mg/dL and a Hb (72 h, time 3 day) of 13.4 g/dL. It also gave a Ht (72 h, time 3 day) of 39.6%, a Lym (72 h, time 3 day) of 78.6% and an MCH (72 h, time 3 day) of 21.3 pg. The MCHC (72 h, time 3 day) was 33.7%, the MCV (72 h, time 3 day) was 63 fL and the Mono (72 h, time 3 day) was 3.4%. The Neu (72 h, time 3 day) was 16.2%, the PT (72 h, time 3 day) was 16.3 s and the Plat (72 h, time 3 day) was 124.3 x10_4/uL. The RBC (72 h, time 3 day) was 628.8 x10_4/ul, the Ret (72 h, time 3 day) was 6.2% and the WBC (72 h, time 3 day) was 96.6 x10_2/uL. The KIDNEY_L (72 h, time 3 day) was 1.1 g, the KIDNEY_R (72 h, time 3 day) was 1.1 g and the KIDNEY_TOTAL (72 h, time 3 day) was 2.1 g. It also gave an LIVER (72 h, time 3 day) of 10.7 g, an A/G (72 h, time 3 day) of 1.2 and an ALP (72 h, time 3 day) of 1575.2 IU/L. For the same molecule, the ALT (72 h, time 3 day) was 38.2 IU/L, the AST (72 h, time 3 day) was 68.6 IU/L and the BUN (72 h, time 3 day) was 17.8 mg/dL. For the same molecule, the CRE (72 h, time 3 day) was 0.2 mg/dL, the Ca (72 h, time 3 day) was 10.1 mg/dL and the Cl (72 h, time 3 day) was 107.6 meq/L. It also gave a DBIL (72 h, time 3 day) of 0 mg/dL, a GLC (72 h, time 3 day) of 198.2 mg/dL and an IP (72 h, time 3 day) of 6.6 mg/dL. For the same molecule, the K (72 h, time 3 day) was 4.3 meq/L, the LDH (72 h, time 3 day) was 181.8 IU/L and the Na (72 h, time 3 day) was 141 meq/L. It also gave a PL (72 h, time 3 day) of 139.8 mg/dL, an RALB (72 h, time 3 day) of 2.9 g/dL and a TBIL (72 h, time 3 day) of 0.016 mg/dL. The TC (72 h, time 3 day) was 71.4 mg/dL, the TG (72 h, time 3 day) was 91 mg/dL and the TP (72 h, time 3 day) was 5.4 g/dL. It also gave a gamma-GTP (72 h, time 3 day) of 1.2 IU/L, a TERMINAL_BW ([…], time 7 day) of 272.7 g and a TERMINAL_BW ([…], time 14 day) of 330.3 g. It also gave a TERMINAL_BW ([…], time 28 day) of 372.4 g, an APTT ([…], time 7 day) of 20.5 s and a Bas ([…], time 7 day) of 0%. The Eos ([…], time 7 day) was 1%, the Fbg ([…], time 7 day) was 307.2 mg/dL and the Hb ([…], time 7 day) was 14.1 g/dL. For the same molecule, the Ht ([…], time 7 day) was 41.9%, the Lym ([…], time 7 day) was 78.2% and the MCH ([…], time 7 day) was 21 pg. It also gave an MCHC ([…], time 7 day) of 33.6%, an MCV ([…], time 7 day) of 62.4 fL and a Mono ([…], time 7 day) of 2.4%. For the same molecule, the Neu ([…], time 7 day) was 17.4%, the PT ([…], time 7 day) was 16.6 s and the Plat ([…], time 7 day) was 119.4 x10_4/uL. It also gave an RBC ([…], time 7 day) of 673.2 x10_4/ul, a Ret ([…], time 7 day) of 6.2% and a WBC ([…], time 7 day) of 121.5 x10_2/uL. For the same molecule, the APTT ([…], time 14 day) was 22.3 s, the Bas ([…], time 14 day) was 0% and the Eos ([…], time 14 day) was 1%. It also gave a Fbg ([…], time 14 day) of 317.8 mg/dL, a Hb ([…], time 14 day) of 13.9 g/dL and a Ht ([…], time 14 day) of 40.4%. The Lym ([…], time 14 day) was 80.2%, the MCH ([…], time 14 day) was 21.2 pg and the MCHC ([…], time 14 day) was 34.5%. For the same molecule, the MCV ([…], time 14 day) was 61.5 fL, the Mono ([…], time 14 day) was 2.4% and the Neu ([…], time 14 day) was 14.8%. The PT ([…], time 14 day) was 16.3 s, the Plat ([…], time 14 day) was 104.3 x10_4/uL and the RBC ([…], time 14 day) was 656.6 x10_4/ul. For the same molecule, the Ret ([…], time 14 day) was 5.2%, the WBC ([…], time 14 day) was 110.8 x10_2/uL and the APTT ([…], time 28 day) was 24.4 s. For the same molecule, the Bas ([…], time 28 day) was 0%, the Eos ([…], time 28 day) was 1% and the Fbg ([…], time 28 day) was 317.2 mg/dL. The Hb ([…], time 28 day) was 15.2 g/dL, the Ht ([…], time 28 day) was 44% and the Lym ([…], time 28 day) was 81.8%. It also gave an MCH ([…], time 28 day) of 19.4 pg, an MCHC ([…], time 28 day) of 34.6% and an MCV ([…], time 28 day) of 56.2 fL. For the same molecule, the Mono ([…], time 28 day) was 2.8%, the Neu ([…], time 28 day) was 13% and the PT ([…], time 28 day) was 16.4 s. For the same molecule, the Plat ([…], time 28 day) was 99.6 x10_4/uL, the RBC ([…], time 28 day) was 783.8 x10_4/ul and the Ret ([…], time 28 day) was 2.7%. For the same molecule, the WBC ([…], time 28 day) was 109.9 x10_2/uL, the KIDNEY_L ([…], time 7 day) was 1.1 g and the KIDNEY_R ([…], time 7 day) was 1.1 g. It also gave a KIDNEY_TOTAL ([…], time 7 day) of 2.2 g, a KIDNEY_L ([…], time 14 day) of 1.3 g and a KIDNEY_R ([…], time 14 day) of 1.3 g. For the same molecule, the KIDNEY_TOTAL ([…], time 14 day) was 2.6 g, the KIDNEY_L ([…], time 28 day) was 1.4 g and the KIDNEY_R ([…], time 28 day) was 1.4 g. It also gave a KIDNEY_TOTAL ([…], time 28 day) of 2.8 g, an LIVER ([…], time 7 day) of 12.3 g and an LIVER ([…], time 14 day) of 14.7 g. It also gave an LIVER ([…], time 28 day) of 14.6 g, an A/G ([…], time 7 day) of 1.1 and an ALP ([…], time 7 day) of 1670.4 IU/L. The ALT ([…], time 7 day) was 43 IU/L, the AST ([…], time 7 day) was 72.2 IU/L and the BUN ([…], time 7 day) was 20.4 mg/dL. It also gave a CRE ([…], time 7 day) of 0.2 mg/dL, a Ca ([…], time 7 day) of 10.7 mg/dL and a Cl ([…], time 7 day) of 107.6 meq/L. For the same molecule, the DBIL ([…], time 7 day) was 0 mg/dL, the GLC ([…], time 7 day) was 216.8 mg/dL and the IP ([…], time 7 day) was 7.3 mg/dL. It also gave a K ([…], time 7 day) of 4.3 meq/L, an LDH ([…], time 7 day) of 201.8 IU/L and a Na ([…], time 7 day) of 141.2 meq/L. It also gave a PL ([…], time 7 day) of 155.2 mg/dL, an RALB ([…], time 7 day) of 2.9 g/dL and a TBIL ([…], time 7 day) of 0 mg/dL. The TC ([…], time 7 day) was 70.8 mg/dL, the TG ([…], time 7 day) was 133.4 mg/dL and the TP ([…], time 7 day) was 5.6 g/dL. For the same molecule, the gamma-GTP ([…], time 7 day) was 1.4 IU/L, the A/G ([…], time 14 day) was 1.1 and the ALP ([…], time 14 day) was 1330.4 IU/L. For the same molecule, the ALT ([…], time 14 day) was 46.6 IU/L, the AST ([…], time 14 day) was 76 IU/L and the BUN ([…], time 14 day) was 21 mg/dL. The CRE ([…], time 14 day) was 0.2 mg/dL, the Ca ([…], time 14 day) was 10.5 mg/dL and the Cl ([…], time 14 day) was 105.2 meq/L. The DBIL ([…], time 14 day) was 0 mg/dL, the GLC ([…], time 14 day) was 207.2 mg/dL and the IP ([…], time 14 day) was 7.1 mg/dL. It also gave a K ([…], time 14 day) of 4.5 meq/L, an LDH ([…], time 14 day) of 208.6 IU/L and a Na ([…], time 14 day) of 141.4 meq/L. It also gave a PL ([…], time 14 day) of 153.4 mg/dL, an RALB ([…], time 14 day) of 2.9 g/dL and a TBIL ([…], time 14 day) of 0 mg/dL. It also gave a TC ([…], time 14 day) of 73 mg/dL, a TG ([…], time 14 day) of 135.2 mg/dL and a TP ([…], time 14 day) of 5.7 g/dL. The gamma-GTP ([…], time 14 day) was 2.2 IU/L, the A/G ([…], time 28 day) was 1.1 and the ALP ([…], time 28 day) was 1212.8 IU/L. The ALT ([…], time 28 day) was 45.8 IU/L, the AST ([…], time 28 day) was 71.6 IU/L and the BUN ([…], time 28 day) was 19.6 mg/dL. The CRE ([…], time 28 day) was 0.2 mg/dL, the Ca ([…], time 28 day) was 10.4 mg/dL and the Cl ([…], time 28 day) was 106.6 meq/L. It also gave a DBIL ([…], time 28 day) of 0 mg/dL, a GLC ([…], time 28 day) of 189.4 mg/dL and an IP ([…], time 28 day) of 6.2 mg/dL. It also gave a K ([…], time 28 day) of 4.1 meq/L, an LDH ([…], time 28 day) of 130.6 IU/L and a Na ([…], time 28 day) of 141 meq/L. The PL ([…], time 28 day) was 135.8 mg/dL, the RALB ([…], time 28 day) was 3 g/dL and the TBIL ([…], time 28 day) was 0.01 mg/dL. It also gave a TC ([…], time 28 day) of 62 mg/dL, a TG ([…], time 28 day) of 118.4 mg/dL and a TP ([…], time 28 day) of 5.9 g/dL. It also gave a gamma-GTP ([…], time 28 day) of 2.8 IU/L.

Reference: ChEMBL document CHEMBL3885861, “Open TG-GATES”
